This is an account of results in patent publication US5091528A, “6- or 7- (2-imino-2-imidazolidine)-1,4-benzoxazines as α adrenergic agents” (Allergan, Inc., priority 1990, dated 1992).

Where a name gives a salt, the structure may show the parent alone.

The test system of one data set is alpha2 -Adrenoreceptor. The settings on record: described by Chapleo et al.; cited from earlier work.
Data set [1] concerns alpha-2 adrenergic receptor. Description: Rabbit Vas Deferens Assay (alpha-2 adrenergic receptor activity). Details: species or system New Zealand white rabbit. To be noted: for Comment (α1/α2 selectivity): Rabbit Vas Deferens table. The procedure:
(§1) The test procedure for alpha-2 adrenergic receptor activity of the compounds of the present invention is the rabbit vas deferens assay which is described as follows:
(§2) New Zealand white rabbits (2-3 kg) were killed by CO2 inhalation and the vasa deferentia removed. The prostatic ends of the vasa deferentia (2-3 cm lengths) were mounted between platinum ring electrodes in 9 ml organ baths and bathed in Krebs bicarbonate solution of the following composition (millimolar): NaCl 118.0; KCl 4.7; CaCl2 2.5; MgSO4 1.2; KH2 PO4 1.2; glucose 11.0; NaHCO3 25.0; which solution was maintained at 35 degrees C and bubbled with 95% O2 and 5% CO2. The initial tension of the vas deferens was 0.5 g. The tissues were left to equilibrate for 30 minutes before stimulation was started. […] Cumulative concentration-response curves were obtained for the compounds being tested with a 4 minute contact time at each concentration. The reduction in response height was measured and expressed as a percentage of the height of the response before the addition of the compounds. Concentration response curves for each of the compounds were plotted. The effective concentration required for a 50% reduction in response height, expressed as EC50 were obtained from these curves.

Data set [2] deals with T1, alpha-2 adrenergic receptor (Oryctolagus cuniculus, UniProt Q5ZQK3).
T1 construct: The prostatic ends of the vasa deferentia (2-3 cm lengths) were mounted between platinum ring electrodes; from tissue; host or cells: prostatic ends of vasa deferentia of New Zealand white rabbits
T1 sequence (Q5ZQK3 1-451): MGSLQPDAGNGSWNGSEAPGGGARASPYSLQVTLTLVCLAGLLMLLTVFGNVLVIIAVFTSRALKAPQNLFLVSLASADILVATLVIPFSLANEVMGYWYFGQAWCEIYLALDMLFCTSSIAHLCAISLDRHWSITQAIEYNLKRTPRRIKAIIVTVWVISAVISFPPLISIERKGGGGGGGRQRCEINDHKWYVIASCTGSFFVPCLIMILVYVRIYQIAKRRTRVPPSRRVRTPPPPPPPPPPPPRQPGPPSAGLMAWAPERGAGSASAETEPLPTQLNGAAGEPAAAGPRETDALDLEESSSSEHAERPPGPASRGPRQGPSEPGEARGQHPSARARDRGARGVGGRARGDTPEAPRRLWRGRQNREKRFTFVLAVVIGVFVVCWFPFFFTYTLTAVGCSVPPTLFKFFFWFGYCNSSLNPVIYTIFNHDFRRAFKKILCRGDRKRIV
The description is as above. Details: species or system New Zealand white rabbit. To be noted: field-stimulated rabbit vas deferens, 35 degrees C, 4 minute contact time; read-out: EC50 (effective concentration required for a 50% reduction in response height). The procedure:
as §1, §2

Data set [3] deals with Alpha 1 adrenergic receptor. Description: Rabbit Aorta: Alpha 1 adrenergic receptor assay. The settings on record: rabbit thoracic aorta rings, 37° C. The text has this:
The vasoconstrictive properties of the compounds of the present invention, i.e. their ability to reduce or control intraocular bleeding, are established by the rabbit aorta: alpha 1 adrenergic receptors in vivo assay procedure, which is recognized in the art to be indicative of the in vivo activity of the tested compounds as vaso-constrictors or as anti intraocular bleeding agents.
Thoracic aorta specimens were obtained form albino rabbits that were killed by CO2 inhalation. The aorta was cut into 3 mm rings. Tissues were placed in Krebs-Hensleit solution of the following composition (millimolar): NaCl 119; KCl 4.7; MgSO4 1.5, KH2 PO4 1.2; CaCl2 2.5; NaHCO3 25 and glucose 11.0. The solution also contained cocaine (0.1 millimolar) to block neuronal uptake and EDTA (30 micromolar) and ascorbic acid (5 micromolar) to prevent oxidation of the compound being tested. Tissues were hung in 10 ml organ baths and tension was measured via Grass FT03 force-displacement transducers. Resting tension was 2 g for the aorta. The solution was gassed with 95% O2 and 5% CO2 and maintained at 37° C. Tissues were allowed to equilibrate for 2 hours before stimulation and the cumulative addition of the compound to be tested (aryl oxazoline) was started. Tissue stimulation was performed using a square wave stimulator (WPI A310) Accupulser with A385 stimulus) at 0.1 Hz, 2 ms pulse width at 90 mA.

The test system of the next data set is intraocular pressure. Description: intraocular pressure (anti-glaucoma) assay, topical unilateral administration. The class given is in vivo, monkey or New Zealand white rabbit. Here is the method: The anti-glaucoma activity (ability to maintain or reduce intraocular pressure) of the compounds of the present invention is established by the following assay pressure. This assay procedure is generally recognized in the art to provide pertinent information with respect to the anti-glaucomaactivity of the formulations assayed. Thus, each of the compounds of the invention to be tested was dissolved in distilled water at a concentration of 0.3% (W/V). Each of these solutions was administered topically and unilaterally to one eye of a drugnaive, unanesthetized monkey or New Zealand white rabbit in a single 50 micro liter drop. The contralateral eye received an equal volume of saline prior to determining the intraocular pressure after the mixture was administered. Also, approximately 10 micro liters of 0.5% (W/V) proparacaine (topical anesthetic) was applied to the corneas of each of the animals before determining intraocular pressure. As a control test, six (6) other drug-naive, unanesthetized animals were treated and tested as described above except that no compound of the invention was included in the solutions administered to the eyes.
The intraocular pressure was determined in both eyes of each animal both before and after the solutions were administered. Such intraocular pressure determinations were made in the conventional manner using conventional equipment.

Data set [4] can be described thus: storage stability of solid. The class given is physicochemical. To be noted: stored in the dark at 0° C.
The mark [5] stands for this setting: Contralateral (Untreated) Eye, 0.3% (W/V) to the other eye.
[6] abbreviates: Ipsilateral (Treated) Eye, 0.3% (W/V), single 50 micro liter drop.

Turning to `O=C1COc2cc(N=C3NCCN3)ccc2N1` [Example 3, 7-2(2-imino-2-imidazolidine)-3-oxo-3,4-dihydro-(2H)-1,4-benzoxazine], the alpha-2 agonist activity entry in the data set with alpha2 -Adrenoreceptor is listed as “partial alpha-2 agonists”.

For the compound `O=C1COc2cc(N=C3NCCN3)c(Br)cc2N1` [Example 4, 6-Bromo-7-(2-imino-2-imidazolidine)-3-oxo-3,4-dihydro-(2H)-1,4-benzoxazine,hydrobromide], in data set [1], the “Comment (α1/α2 selectivity)” value is listed as “α2 Selective”. In addition, the EC50 in data set [2] was 167 ± 56.1 nM; in data set [3], 1120 ± 457 nM.

As for `O=C1COc2c(cc(Br)c(N=C3NCCN3)c2Br)N1` [Example 5, 6,8-dibromo-7-(2-imino-2-imidazolidine)-3-oxo-3,4-dihydro-(2H)-1,4-benzoxazine], in data set [1], the “Comment (α1/α2 selectivity)” value is “Non-Selective”. The “Comment (vasoconstrictor activity)” value in data set [1] (printed "Potent- Vasoconstrictor" on two lines) was “Vasoconstrictor”. Besides, the EC50 in data set [2] was determined as 0.59 ± 0.14 nM; in data set [3] it was 3.41 ± 0.5 nM.

As to `Brc1cc2c(cc1N=C1NCCN1)OCCN2` [Example 7, 6-bromo-7-(2-imino-2-imidazolidine)-3,4-dihydro-(2H)-1,4-benzoxazine], the “Comment (α1/α2 selectivity)” value in data set [1] is “α1 Selective”. Moreover, the EC50 in data set [2] is more than 10000 nM; in data set [3] it was 39 ± 6.36 nM.

For `O=C1COc2ccc(N=C3NCCN3)cc2N1` [Example 12, 6-(2-imino-2-imidazlidine)-3-oxo-3,4-dihydro-(2H)-1,4-benzoxazine], the alpha-2 agonist activity result in the data set on alpha2 -Adrenoreceptor is “partial alpha-2 agonists”.

`O=C1COc2cc(Br)c(N=C3NCCN3)c(Br)c2N1` [Example 14, 5,7-dibromo-6-(2-imino-2-imidazolidine)-3-oxo-3,4-dihydro-2H-1,4-benzoxazin]: in data set [1], the “Comment (α1/α2 selectivity)” value is recorded as “α2 Selective”. Also, the EC50 is 48.5 ± 20.6 nM in data set [2] and more than 100000 nM in data set [3].

For the compound `CN1C(=O)COc2cc(N=C3NCCN3)c(Br)cc21` [Example 22, 4-methyl-6-bromo-7-(2-imino-imidazolidine)-3-oxo-3,4-dihydro-2H-1,4-benzoxazinehydrobromide], the “Comment (α1/α2 selectivity)” value in data set [1] is “α2 Selective”. Moreover, the values for the EC50 in data set [2] and in data set [3] were 105 ± 35.5 nM and 1430 ± 891 nM, respectively. Further, the “Duration of IOP decrease” value is 1 h in the data set with intraocular pressure (setting [5]) and 1 to 2 h in the data set on intraocular pressure (setting [6]). For the same compound, the “Maximum Difference in Intraocular Pressure After Solution Administration, % Decrease in IOP from Control” value in the data set with intraocular pressure (setting [5]) was determined as 5.7 ± 2.0%; in the data set on intraocular pressure (setting [6]) it was 11.5 ± 2.7%.

On to `CN1C(=O)COc2cc(Br)c(N=C3NCCN3)cc21` [Example 31, 7-bromo-4-methyl-6-(2-imino-imidazolidine)-3-oxo-3,4-dihydro-(2H)-1,4-benzoxazine], for which the “Comment (α1/α2 selectivity)” value in data set [1] was “α2 Selective”. The EC50 in data set [2] came to 41.5 ± 24.4 nM; in data set [3] it was 2740 ± 1430 nM. The figures for the “Duration of IOP decrease” value in the data set on intraocular pressure (setting [5]) and with intraocular pressure (setting [6]) were 1 h and 1 to 6 h, respectively. Moreover, the “Maximum Difference in Intraocular Pressure After Solution Administration, % Decrease in IOP from Control” value amounted to 6.8 ± 1.8% in the data set with intraocular pressure (setting [5]) and 14 ± 2.5% with intraocular pressure (setting [6]).

In the case of `Cc1cc2c(cc1N=C1NCCN1)NC(=O)CO2` [Example 39, 7-methyl-6(2-imino-2-imidazolidine)-3-oxo-3,4-dihydro-(2H)-1,4-benzoxazine], the “Comment (α1/α2 selectivity)” value in data set [1] is recorded as “α2 Selective”. The EC50 in data set [2] was 74.6 ± 43.6 nM; in data set [3] it was 5690 ± 956 nM.

As for `CCc1cc2c(cc1N=C1NCCN1)NC(=O)CO2` [Example 50, 7-Ethyl-6-(2-imino-2-imidazolidine)-3-oxo-3,4-dihydro-(2H)-1,4-benzoxazine], the “Comment (α1/α2 selectivity)” value in data set [1] is “α2 Selective”. Besides, the figures for the EC50 in data set [2] and in data set [3] were 8.92 ± 3.11 nM and 940 ± 18.5 nM, respectively.

For `CCCc1c(N=C2NCCN2)ccc2c1NC(=O)CO2` [Example 56, 5-Propyl-6-(2-imino-2-imidazolidine)-3-oxo-3,4-dihydro-(2H)-1,4-benzoxazine], the “Comment (α1/α2 selectivity)” value in data set [1] is listed as “α2 Selective”. The EC50 in data set [2] came out at 18.1 ± 1.21 nM; in data set [3], 1120 ± 94.1 nM.

For the compound `O=S(=O)(O)C1=NCCN1` [Imidazoline-2-sulfonic acid], the “stability of solid on storage” value in data set [4] is given as “at least 6 months”.
